Biological target: T1, TRAP1 enzyme (Homo sapiens, UniProt Q12931)
T1 construct: 150 nM Trap1 enzyme was incubated with various concentrations of the test compound
T1 sequence (Q12931 60-704): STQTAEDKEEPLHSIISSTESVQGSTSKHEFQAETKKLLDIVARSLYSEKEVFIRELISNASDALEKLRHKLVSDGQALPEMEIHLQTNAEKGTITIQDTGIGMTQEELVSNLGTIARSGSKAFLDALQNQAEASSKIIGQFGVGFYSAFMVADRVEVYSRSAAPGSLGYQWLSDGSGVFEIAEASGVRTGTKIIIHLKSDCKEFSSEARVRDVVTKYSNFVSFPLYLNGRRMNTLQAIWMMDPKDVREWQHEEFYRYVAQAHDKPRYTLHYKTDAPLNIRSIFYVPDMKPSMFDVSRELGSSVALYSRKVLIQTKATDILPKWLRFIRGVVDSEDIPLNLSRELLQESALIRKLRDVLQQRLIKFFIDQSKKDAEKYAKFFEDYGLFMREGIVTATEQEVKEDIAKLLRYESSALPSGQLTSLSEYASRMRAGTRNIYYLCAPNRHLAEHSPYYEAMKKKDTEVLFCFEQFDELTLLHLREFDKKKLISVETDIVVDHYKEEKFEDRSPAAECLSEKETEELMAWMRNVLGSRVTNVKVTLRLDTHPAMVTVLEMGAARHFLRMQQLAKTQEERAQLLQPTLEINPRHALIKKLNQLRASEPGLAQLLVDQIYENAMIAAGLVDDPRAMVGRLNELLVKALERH
Experiment: ADP Glo assay of TRAP1 ATPase activity
Assay type: biochemical
Conditions: for EC50: concentration for half maximal activation, read-out: ADP GLO DRC: GeoMean EC50; for Emax: maximal percent activation, read-out: ADP GLO DRC: Mean Emax
Procedure: Potency of test compounds to modulate the ATPase activity of TRAP1 enzyme was evaluated using ADP Glo assay. The assay is based on quantification of the ADP generated from ATP in the ATPase reaction. The assay is performed in two steps; first, after the ATPase reaction an equal volume of ADP-Glo™ Reagent is added to terminate the ATPase reaction and deplete the remaining ATP. Second, the Kinase Detection Reagent is added to simultaneously convert ADP to ATP and allow the newly synthesized ATP to be measured using a luciferase/luciferin reaction.
All the assays were carried out in a 384-well Proxiplate. The buffer used was 25 mM Pipes pH-7.5, 40 mM KCl, 0.05 mM MgCl2, 0.025% BSA, 0.316 mM EGTA, 0.003% Empigen, 0.01% Igepal. 150 nM Trap1 enzyme was incubated with various concentrations of the test compound (0.79 μM-100 μM) at 37° C. for 30 mins (except in blank wells). 20 μM ATP was added to each well to start the reaction. The plate was spun for 1 min at 1200 rpm and then incubated at 37° C. for 60 mins. 5 μl of ADP Glo reagent was added to all the wells and spun the plate for 1 min at 1200 rpm and kept it on a shaker at ambient temperature for 60 mins. 10 μl of kinase detection mix was added to all the wells and the plate was read for Luminescence at 495 nm. The amount of ADP released was estimated from ATP/ADP standard curve generated at the same experimental conditions. Emax (Maximal percent activation) and EC50 (concentration for half maximal activation) were estimated by fitting the dose response data to a sigmoidal curve fitting equation using Graphpad Prism software V. 8.

EC50	Emax	SMILES
20 to 100 µM	119 to 159%	COc1ncc(NC(=O)c2noc3c2CCCC3)cc1S(=O)(=O)Nc1ccc(Cl)cc1 [compound 1194, N-(5-(N-(4-chlorophenyl)sulfamoyl)-6-methoxypyridin-3-yl)-4,5,6,7-tetrahydrobenzo[d]isoxazole-3-carboxamide]
10 to 20 µM	160 to 199%	COc1ncc(NC(=O)c2ncccc2C(=O)c2ccccc2)cc1S(=O)(=O)Nc1ccc(Cl)cc1 [compound 1195, 3-benzoyl-N-(5-(N-(4-chlorophenyl)sulfamoyl)-6-methoxypyridin-3-yl)picolinamide]
< 10 µM	160 to 199%	COc1ncc(NC(=O)c2ccccc2C(=O)c2ccccc2)cc1S(=O)(=O)Nc1ccc(Cl)cc1 [compound 1197, 2-benzoyl-N-(5-(N-(4-chlorophenyl)sulfamoyl)-6-methoxypyridin-3-yl)benzamide]
10 to 20 µM	160 to 199%	COc1ncc(NC(=O)c2ccc3nccnc3c2)cc1S(=O)(=O)Nc1ccc(Cl)cc1 [compound 1198, N-(5-(N-(4-chlorophenyl)sulfamoyl)-6-methoxypyridin-3-yl) quinoxaline-6-carboxamide]
10 to 20 µM	160 to 199%	COc1ncc(NC(=O)c2cc(-n3ccnc3)ccn2)cc1S(=O)(=O)Nc1ccc(Cl)cc1 [compound 1203, N-(5-(N-(4-chlorophenyl)sulfamoyl)-6-methoxypyridin-3-yl)-4-(1H-imidazol-1-yl)picolinamide]
10 to 20 µM	160 to 199%	COc1ncc(NC(=O)c2cccc(-n3cncn3)c2)cc1S(=O)(=O)Nc1ccc(Cl)cc1 [compound 1204, N-(5-(N-(4-chlorophenyl)sulfamoyl)-6-methoxypyridin-3-yl)-3-(1H-1,2,4-triazol-1-yl)benzamide]
20 to 100 µM	119 to 159%	COc1ncc(NC(=O)C(C)n2cc(Br)cn2)cc1S(=O)(=O)Nc1ccc(Cl)cc1 (stereo not shown) [compound 1213, (4-bromo-1H-pyrazol-1-yl)-N-(5-(N-(4-chlorophenyl)sulfamoyl)-6-methoxypyridin-3-yl)propanamide]
20 to 100 µM	119 to 159%	Cc1ncoc1C(=O)Nc1cc(S(=O)(=O)Nc2ccc(Cl)cc2)cc[n+]1[O-] [compound 1294, 4-(N-(4-chlorophenyl)sulfamoyl)-2-(4-methyloxazole-5-carboxamido)pyridine 1-oxide]
10 to 20 µM	160 to 199%	COc1ncc(NC(=O)c2ncc(-c3ccccc3)o2)cc1S(=O)(=O)Nc1c(Cl)cccc1C(F)(F)F [compound 1303, N-(5-(N-(2-chloro-6-(trifluoromethyl)phenyl)sulfamoyl)-6-methoxypyridin-3-yl)-5-phenyloxazole-2-carboxamide]
< 10 µM	200 to 300%	COc1ncc(NC(=O)c2coc(-c3ccccc3)n2)cc1S(=O)(=O)Nc1c(C)cccc1C [compound 1312, N-(5-(N-(2,6-dimethylphenyl)sulfamoyl)-6-methoxypyridin-3-yl)-2-phenyloxazole-4-carboxamide]
10 to 20 µM	160 to 199%	O=C(Nc1cc(S(=O)(=O)Nc2ccc(Cl)cc2)cc[n+]1[O-])c1cnc(-c2ccccc2)[nH]1 [compound 1321, 4-(N-(4-chlorophenyl)sulfamoyl)-2-(2-phenyl-1H-imidazole-5-carboxamido) pyridine 1-oxide]
< 10 µM	119 to 159%	COc1ncc(NC(=O)c2csc(-c3ccccc3)n2)cc1S(=O)(=O)Nc1ccccc1C [compound 1350, N-(6-methoxy-5-(N-(o-tolyl)sulfamoyl)pyridin-3-yl)-2-phenylthiazole-4-carboxamide]
10 to 20 µM	119 to 159%	COc1ncc(NC(=O)c2csc(-c3ccncc3)n2)cc1S(=O)(=O)Nc1c(C)cccc1C [compound 1351, N-(5-(N-(2,6-dimethylphenyl)sulfamoyl)-6-methoxypyridin-3-yl)-2-(pyridin-4-yl)thiazole-4-carboxamide]
20 to 100 µM	200 to 300%	COc1ncc(NC(=O)c2ncc(-c3ccccc3)o2)cc1S(=O)(=O)Nc1c(C#N)cccc1C(F)(F)F [compound 1358, N-(5-(N-(2-cyano-6-(trifluoromethyl)phenyl)sulfamoyl)-6-methoxypyridin-3-yl)-5-phenyloxazole-2-carboxamide]
20 to 100 µM	119 to 159%	COc1ncc(NC(=O)c2cn(C)c3ncccc23)cc1S(=O)(=O)Nc1ccc(Cl)cc1 [compound 1359, N-(5-(N-(4-chlorophenyl)sulfamoyl)-6-methoxypyridin-3-yl)-1-methyl-1H-pyrrolo [2,3-b]pyridine-3-carboxamide]
10 to 20 µM	200 to 300%	O=C(Nc1cc(S(=O)(=O)Nc2ccc(Cl)cc2)ccn1)c1cnc(-c2ccccc2)[nH]1 [compound 1361, N-(4-(N-(4-chlorophenyl)sulfamoyl)pyridin-2-yl)-2-phenyl-1H-imidazole-5-carboxamide]
20 to 100 µM	> 300%	COc1ncc(NC(=O)c2ccnc3c2OCCC3)cc1S(=O)(=O)Nc1c(C)cccc1C [compound 1364, N-(5-(N-(2,6-dimethylphenyl)sulfamoyl)-6-methoxypyridin-3-yl)-3,4-dihydro-2H-pyrano[3,2-b]pyridine-8-carboxamide]
< 10 µM	200 to 300%	COc1ncc(NC(=O)c2cccc3ocnc23)cc1S(=O)(=O)Nc1c(C)cccc1C [compound 1366, N-(5-(N-(2,6-dimethylphenyl)sulfamoyl)-6-methoxypyridin-3-yl)benzo[d]oxazole-4-carboxamide]
20 to 100 µM	> 300%	COc1ncc(NC(=O)c2cccc3ncoc23)cc1S(=O)(=O)Nc1c(C)cccc1C [compound 1367, N-(5-(N-(2,6-dimethylphenyl)sulfamoyl)-6-methoxypyridin-3-yl)benzo[d]oxazole-7-carboxamide]
20 to 100 µM	160 to 199%	COc1ncc(NC(=O)c2ncc(-c3ccccc3)o2)cc1S(=O)(=O)Nc1c(F)cccc1C(F)(F)F [compound 1377, N-(5-(N-(2-fluoro-6-(trifluoromethyl)phenyl)sulfamoyl)-6-methoxypyridin-3-yl)-5-phenyloxazole-2-carboxamide]
20 to 100 µM	200 to 300%	COc1ncc(NC(=O)c2cccc3c2OC(C)(C)C3)cc1S(=O)(=O)Nc1c(C)cccc1C [compound 1379, N-(5-(N-(2,6-dimethylphenyl)sulfamoyl)-6-methoxypyridin-3-yl)-2,2-dimethyl-2,3-dihydrobenzofuran-7-carboxamide]
< 10 µM	> 300%	COc1ncc(NC(=O)c2cc3c(C)nn(C)c3s2)cc1S(=O)(=O)Nc1c(C)cccc1C [compound 1380, N-(5-(N-(2,6-dimethylphenyl)sulfamoyl)-6-methoxypyridin-3-yl)-1,3-dimethyl-1H-thieno[2,3-c]pyrazole-5-carboxamide]
20 to 100 µM	200 to 300%	COc1ncc(NC(=O)c2csc(-c3ccccc3)n2)cc1S(=O)(=O)Nc1ccc(Cl)nc1C [compound 1382, N-(5-(N-(6-chloro-2-methylpyridin-3-yl)sulfamoyl)-6-methoxypyridin-3-yl)-2-phenylthiazole-4-carboxamide]
20 to 100 µM	> 300%	COc1ncc(NC(=O)c2csc(-c3ccccc3)n2)cc1S(=O)(=O)Nc1ncc(Cl)cn1 [compound 1383, N-(5-(N-(5-chloropyrimidin-2-yl)sulfamoyl)-6-methoxypyridin-3-yl)-2-phenylthiazole-4-carboxamide]
10 to 20 µM	160 to 199%	COc1ncc(NC(=O)c2csc(-c3ccccc3)n2)cc1S(=O)(=O)Nc1ccc(Cl)cn1 [compound 1385, N-(5-(N-(5-chloropyridin-2-yl)sulfamoyl)-6-methoxypyridin-3-yl)-2-phenylthiazole-4-carboxamide]
< 10 µM	200 to 300%	COc1cccc(OC)c1NS(=O)(=O)c1cc(NC(=O)c2csc(-c3ccccc3)n2)cnc1OC [compound 1386, N-(5-(N-(2,6-dimethoxyphenyl)sulfamoyl)-6-methoxypyridin-3-yl)-2-phenylthiazole-4-carboxamide]

Reference: patent US20230159509A1 (Amathus Therapeutics, Inc., priority 2020, published 2023)
